How the values were obtained:
[1] = molecular target: T1, PDE4D (Homo sapiens, UniProt Q08499); test: In vitro PDE4 inhibition study, PDE4D (BPS Bioscience); assay type: binding; conditions: values in parentheses
T1 construct: purchased BPS Bioscience, San Diego
Protocol: (§1) The IC50 values of Compound 8 on PDE4 isoforms were determined by BPS Bioscience, San Diego. In brief, coat proteins (PDE4 isoforms) were added into the plate in a volume of 50 μl (2-5 ng/μl) at 4° C. overnight. The next day, Compound 8 was added to the coated plate with varying concentrations followed by addition of the corresponding biotinylated binding partner. The reaction was incubated for 2 hours at room temperature. Binding assays were performed in duplicate at each concentration and the plates were read by using Synergy 2 BioTek plate reader. The luminescence data were analyzed using the Graphpad Prism. […] Data for a reference compounds or antibodies are included as a control for inhibition. “ND” indicates the compound was not tested.

[2] = molecular target: T2, PDE4B (Homo sapiens, UniProt Q07343); test: In vitro PDE4 inhibition study, PDE4B (BPS Bioscience); assay type: binding; conditions: for inhibition at 10 µM: values in parentheses
T2 construct: purchased BPS Bioscience, San Diego
T2 sequence (Q07343 whole entry): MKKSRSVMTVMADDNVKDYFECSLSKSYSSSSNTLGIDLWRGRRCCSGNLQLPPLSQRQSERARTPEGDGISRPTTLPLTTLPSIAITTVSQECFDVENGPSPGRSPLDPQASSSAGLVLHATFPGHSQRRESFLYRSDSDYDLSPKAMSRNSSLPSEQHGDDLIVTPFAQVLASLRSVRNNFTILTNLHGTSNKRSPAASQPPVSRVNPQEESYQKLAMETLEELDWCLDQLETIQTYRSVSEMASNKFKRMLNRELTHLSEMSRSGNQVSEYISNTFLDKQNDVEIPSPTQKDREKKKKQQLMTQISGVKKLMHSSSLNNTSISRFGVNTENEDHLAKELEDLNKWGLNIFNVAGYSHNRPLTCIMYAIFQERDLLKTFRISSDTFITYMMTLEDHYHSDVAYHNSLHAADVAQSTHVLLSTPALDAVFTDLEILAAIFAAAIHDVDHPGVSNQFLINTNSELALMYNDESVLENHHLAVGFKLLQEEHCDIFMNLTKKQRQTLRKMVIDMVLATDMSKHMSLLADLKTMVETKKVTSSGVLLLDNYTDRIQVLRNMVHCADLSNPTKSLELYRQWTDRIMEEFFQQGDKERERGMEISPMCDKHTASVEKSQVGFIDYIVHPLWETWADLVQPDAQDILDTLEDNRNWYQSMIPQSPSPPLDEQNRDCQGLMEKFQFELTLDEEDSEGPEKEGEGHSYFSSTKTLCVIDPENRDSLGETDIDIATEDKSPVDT
Protocol: as §1

T1 sequence (Q08499 whole entry): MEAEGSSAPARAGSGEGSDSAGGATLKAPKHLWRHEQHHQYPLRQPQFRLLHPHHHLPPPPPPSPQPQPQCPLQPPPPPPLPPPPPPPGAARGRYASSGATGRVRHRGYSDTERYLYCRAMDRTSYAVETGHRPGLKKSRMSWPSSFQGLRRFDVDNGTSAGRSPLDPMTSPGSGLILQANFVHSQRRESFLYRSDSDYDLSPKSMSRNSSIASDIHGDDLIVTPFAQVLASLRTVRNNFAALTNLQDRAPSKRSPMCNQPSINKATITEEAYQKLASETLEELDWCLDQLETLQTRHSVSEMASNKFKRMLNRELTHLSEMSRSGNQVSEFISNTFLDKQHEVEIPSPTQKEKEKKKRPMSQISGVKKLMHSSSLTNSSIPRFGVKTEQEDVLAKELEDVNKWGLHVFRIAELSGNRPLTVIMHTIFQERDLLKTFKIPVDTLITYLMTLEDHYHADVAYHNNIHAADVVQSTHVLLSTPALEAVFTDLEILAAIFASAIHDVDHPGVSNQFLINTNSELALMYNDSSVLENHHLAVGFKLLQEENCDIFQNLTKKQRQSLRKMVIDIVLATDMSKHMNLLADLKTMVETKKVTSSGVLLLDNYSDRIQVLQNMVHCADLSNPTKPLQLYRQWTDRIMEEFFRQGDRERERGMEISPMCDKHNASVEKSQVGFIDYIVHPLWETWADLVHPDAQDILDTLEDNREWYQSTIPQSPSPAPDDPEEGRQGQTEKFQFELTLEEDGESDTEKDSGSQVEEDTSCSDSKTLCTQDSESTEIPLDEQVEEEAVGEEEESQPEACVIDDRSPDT

| Structure (SMILES) | inhibition at 10 µM [1] [%] | inhibition at 10 µM [2] [%] | IC50 [2] [nM] |
| --- | --- | --- | --- |
| O=C(NCc1ccco1)c1cc2cccnc2n1-c1ccc(Cl)c(Cl)c1 [Compound 5, 1-(3,4-dichlorophenyl)-N-(furan-2-ylmethyl)-1H-pyrrolo[2,3-b]pyridine-2-carboxamide] | 52 | 70 | – |
| N#Cc1c(F)cc(-n2c(C(=O)NC3CCC3)cc3cccnc32)cc1F [Compound 27, 1-(4-cyano-3,5-difluorophenyl)-N-cyclobutyl-1H-pyrrolo[2,3-b]pyridine-2-carboxamide] | 16.6 | – | 1800 |
| COc1c(F)cc(-n2c(C(=O)N3CC(F)C3)cc3cccnc32)cc1F [Compound 42, (1-(3,5-difluoro-4-methoxyphenyl)-1H-pyrrolo[2,3-b]pyridin-2-yl)(3-fluoroazetidin-1-yl) methanone] | – | – | 410 |
| O=C(c1cc2cccnc2n1Cc1ccc(Cl)c(Cl)c1)N1CC(F)C1 [Compound 43, (1-(3,4-dichlorobenzyl)-1H-pyrrolo[2,3-b]pyridin-2-yl)(3-fluoroazetidin-1-yl)methanone] | 58 | 72 | – |
| COc1ccc(-n2c(C(=O)N3CC(F)C3)cc3cccnc32)cc1 [Compound 38, (3-fluoroazetidin-1-yl)(1-(4-methoxyphenyl)-1H-pyrrolo[2,3-b]pyridin-2-yl)methanone] | 37 | 67 | – |
| O=C(c1cc2cccnc2n1-c1ccc(Cl)c(Cl)c1)N1CCCC2(CCO2)C1 (stereo not shown) [Compound 10, (1-(3,4-dichlorophenyl)-1H-pyrrolo[2,3-b]pyridin-2-yl)(1-oxa-6-azaspiro[3.5]nonan-6-yl)methanone] | 39 | 73 | – |
| N#Cc1c(F)cc(-n2c(C(=O)NC3CC3)cc3cccnc32)cc1F [Compound 26, 1-(4-cyano-3,5-difluorophenyl)-N-cyclopropyl-1H-pyrrolo[2,3-b]pyridine-2-carboxamide] | 18.5 | – | 1400 |
| O=C(NC1CCC1)c1cc2cccnc2n1-c1ccc(Cl)cc1 [Compound 32, 1-(4-chlorophenyl)-N-cyclobutyl-1H-pyrrolo[2,3-b]pyridine-2-carboxamide] | 28.2 | – | 5000 |
| O=C(c1cc2cccnc2n1-c1ccc(Cl)c(Cl)c1)N1CC2(CCNCC2)C1 [Compound 15, (1-(3,4-dichlorophenyl)-1H-pyrrolo[2,3-b]pyridin-2-yl)(2,7-diazaspiro[3.5]nonan-2-yl) methanone] | 13 | 33 | – |
| O=C(NC1CC1)c1cc2cccnc2n1-c1cc(F)c(Cl)c(F)c1 [Compound 21, 1-(4-chloro-3,5-difluorophenyl)-N-cyclopropyl-1H-pyrrolo[2,3-b]pyridine-2-carboxamide] | 53 | – | 1400 |
| N#Cc1c(F)cc(-n2c(C(=O)N3CC(F)C3)cc3cccnc32)cc1F [Compound 30, 2,6-difluoro-4-(2-(3-fluoroazetidine-1-carbonyl)-1H-pyrrolo[2,3-b]pyridin-1-yl)benzonitrile] | 66 | – | 430 |
| O=C(NC1CC(F)C1)c1cc2cccnc2n1-c1ccc(Cl)c(Cl)c1 (stereo not shown) [Compound 3, 1-(3,4-Dichlorophenyl)-N-(3-fluorocyclobutyl)-1H-pyrrolo[2,3-b]pyridine-2-carboxamide] | 36 | – | 600 |
| N#Cc1c(F)cc(-n2c(C(=O)NC3CC(F)(F)C3)cc3cccnc32)cc1F [Compound 29, 1-(4-cyano-3,5-difluorophenyl)-N-(3,3-difluorocyclobutyl)-1H-pyrrolo[2,3-b]pyridine-2-carboxamide] | 18 | 47 | – |
| O=C(c1cc2cccnc2n1-c1ccc(Cl)c(Cl)c1)N1CCC1 [Compound 6, Azetidin-1-yl(1-(3,4-dichlorophenyl)-1H-pyrrolo[2,3-b]pyridin-2-yl)methanone] | – | – | 110 |

More lines, now with the values ahead:

| inhibition at 10 µM [1] [%] | inhibition at 10 µM [2] [%] | IC50 [2] [nM] | Structure (SMILES) |
| --- | --- | --- | --- |
| 10.1 | – | 2900 | O=C(NC1CC1)c1cc2cccnc2n1-c1ccc(Cl)cc1 [Compound 31, 1-(4-chlorophenyl)-N-cyclopropyl-1H-pyrrolo[2,3-b]pyridine-2-carboxamide] |
| 12.1 | 58 | – | N#Cc1c(F)cc(-n2c(C(=O)NC3CC(F)C3)cc3cccnc32)cc1F (stereo not shown) [Compound 28, 1-(4-cyano-3,5-difluorophenyl)-N-(3-fluorocyclobutyl)-1H-pyrrolo[2,3-b]pyridine-2-carboxamide] |
| – | – | 980 | O=C(c1cc2cccnc2n1-c1ccc(Cl)c(Cl)c1)N1CCC2(CCC2)C1 [Compound 13, (1-(3,4-dichlorophenyl)-1H-pyrrolo[2,3-b]pyridin-2-yl)(6-azaspiro[3.4]octan-6-yl) methanone] |
| – | – | 980 | O=C(c1cc2cccnc2n1-c1ccnc(F)c1)N1CC(F)C1 [Compound 41, (3-fluoroazetidin-1-yl)(1-(2-fluoropyridin-4-yl)-1H-pyrrolo[2,3-b]pyridin-2-yl)methanone] |
| 77 | – | 230 | O=C(c1cc2cccnc2n1-c1ccc(Cl)c(Cl)c1)N1CC(F)C1 [Compound 7, (1-(3,4-dichlorophenyl)-1H-pyrrolo[2,3-b]pyridin-2-yl)(3-fluoroazetidin-1-yl)methanone] |
| 11.6 | 23 | – | O=C(NC1CC(F)(F)C1)c1cc2cccnc2n1-c1ccc(Cl)c(Cl)c1 [Compound 4, 1-(3,4-dichlorophenyl)-N-(3,3-difluorocyclobutyl)-1H-pyrrolo[2,3-b]pyridine-2-carboxamide] |
| 17 | 39 | – | O=C(c1cc2cccnc2n1-c1ccc(Cl)c(Cl)c1)N1CCS(=O)(=O)CC1 [Compound 11, (1-(3,4-dichlorophenyl)-1H-pyrrolo[2,3-b]pyridin-2-yl)(1,1-dioxidothiomorpholino) methanone] |
| 10.7 | – | 1300 | O=C(NC1CCC1)c1cc2cccnc2n1-c1cc(F)c(Cl)c(F)c1 [Compound 22, 1-(4-chloro-3,5-difluorophenyl)-N-cyclobutyl-1H-pyrrolo[2,3-b]pyridine-2-carboxamide] |
| 43 | – | 2300 | Cc1ccc(-n2c(C(=O)NC3CCC3)cc3cccnc32)cc1Cl [Compound 17, 1-(3-chloro-4-methylphenyl)-N-cyclobutyl-1H-pyrrolo[2,3-b]pyridine-2-carboxamide] |
| 39 | – | 1300 | O=C(NC1CCC1)c1cc2cccnc2n1-c1ccc(Cl)c(F)c1 [Compound 34, 1-(4-chloro-3-fluorophenyl)-N-cyclobutyl-1H-pyrrolo[2,3-b]pyridine-2-carboxamide] |
| 71 | – | 610 | O=C(c1cc2cccnc2n1-c1ccc(Cl)c(F)c1)N1CC(F)C1 [Compound 37, (1-(4-chloro-3-fluorophenyl)-1H-pyrrolo[2,3-b]pyridin-2-yl)(3-fluoroazetidin-1-yl) methanone] |
| 62 | – | 210 | O=C(c1cc2cccnc2n1-c1cc(F)c(Cl)c(F)c1)N1CC(F)C1 [Compound 25, (1-(4-chloro-3,5-difluorophenyl)-1H-pyrrolo[2,3-b]pyridin-2-yl)(3-fluoroazetidin-1-yl) methanone] |
| – | – | 490 | COc1ncc(-n2c(C(=O)N3CC(F)C3)cc3cccnc32)cc1Cl [Compound 39, (1-(5-chloro-6-methoxypyridin-3-yl)-1H-pyrrolo[2,3-b]pyridin-2-yl)(3-fluoroazetidin-1-yl) methanone] |
